Results published in ChEMBL document CHEMBL1142875, “Synthesis and biological evaluation of 4-alkylamino-6-(2-hydroxyethyl)-2-methylthiopyrimidines as new rubella virus inhibitors” (Eur J Med Chem, 2007).

Legend:
[1] = Cytotoxicity against Vero cells after 48 hrs; format: cell-based; conditions: chlorocebus sabaeus
[2] = Inhibition of Rubella virus strain THERIEN in Vero cells after 48 hrs of high multiplicity infection by plaque assay; format: functional; design: concentration or dose not given beside the values
[3] = Antiviral activity against Rubella virus strain THERIEN in Vero cells; format: functional, cell-based
[4] = Selectivity index, Ratio of CC50 for Vero cells to IC50 for Rubella virus strain THERIEN; format: functional

Structure (SMILES)	IC50 [3] [µM]	CC50 at 48 h [1] [µM]	Inhibition [2] [%]	Ratio CC50/IC50 [4]
C=CCNc1nc(SC)nc(CCO)c1Cl	43.5	481	83	11.1
C#CCNc1nc(SC)nc(CCO)c1I	34.1	716	97.3	21
C=CCNc1nc(SC)nc(CCO)c1I	15.7	356	93.9	22.7
C#CCNc1nc(SC)nc(CCO)c1Br	149	827	94.4	5.6
C=CCNc1nc(SC)nc(CCO)c1Br	50.9	411	86.9	8.1
CCCCN(CCCC)c1cc(CCO)nc(SC)n1	13.5	52.5	87	3.9
CSc1nc(CCO)cc(N(CCO)CCO)n1	170	1820	95.7	10.7
CCCCCNc1nc(SC)nc(CCO)c1Cl	16.2	108	66.4	6.6
CCCCCNc1nc(SC)nc(CCO)c1I	27.5	81.8	95.1	3
CCCCCNc1nc(SC)nc(CCO)c1Br	37.4	93.3	60	2.5
CCCCCNc1cc(CCO)nc(SC)n1	21.6	245	94.7	11.4
C=CCN(CC=C)c1cc(CCO)nc(SC)n1	112	249	54.7	2.2
C#CCNc1nc(SC)nc(CCO)c1Cl	136	485	85.4	3.6
CCCN(CCC)c1cc(CCO)nc(SC)n1	> 29	58	0	<2

Second part, led by results:

IC50 [3] [µM]	Structure (SMILES)	CC50 at 48 h [1] [µM]	Inhibition [2] [%]	Ratio CC50/IC50 [4]
48	CSc1nc(CCO)cc(NCc2ccc(Cl)cc2Cl)n1	182	76.1	3.8
108	C#CCNc1cc(CCO)nc(SC)n1	1120	98.8	10.4
> 278	CSc1nc(CCO)cc(N2CCC2)n1	556	35.6	<2
> 233	CSc1nc(CCO)cc(N2CCN(C)CC2)n1	466	20.6	<2
> 231	CSc1nc(CCO)cc(N2CCSCC2)n1	461	45.2	<2
17.6	CSc1nc(CCO)cc(N2CCN(c3cccc(C(F)(F)F)c3)CC2)n1	39.2	58.9	2.2
57	CSc1nc(CCO)cc(N2CCN(c3ccccc3)CC2)n1	189	90	3.3
22.6	CSc1nc(CCO)cc(N2CCSC2)n1	486	95.3	21.6
47.8	CSc1nc(CCO)cc(N2CCC(C)CC2)n1	233	96.5	4.9
48.1	CSc1nc(CCO)cc(N2CCCC2)n1	523	72.6	10.9
> 54	CSc1nc(CCO)cc(N(C)Cc2ccccc2)n1	108	31.9	<2
25.3	CCCN(C)c1cc(CCO)nc(SC)n1	519	94.2	20.5
114	C#CCN(C)c1cc(CCO)nc(SC)n1	1050	92.1	9.3
27.8	COc1ccccc1N1CCN(c2cc(CCO)nc(SC)n2)CC1	174	96.1	6.2
49	CSc1nc(CCO)cc(N2CCN(C(C)=O)CC2)n1	422	65.6	8.6
> 215	COc1ccc(Nc2cc(CCO)nc(SC)n2)cc1	430	43.3	<2
51.7	CSc1nc(CCO)cc(N2CCN(c3ccc(F)cc3)CC2)n1	180	93.2	3.5
80.7	CSc1nc(CCO)cc(N(C)C)n1	587	92.8	7.3
